In EP1692296B1 (priority 2003, dated 2005):
Entries after “also recorded” stand apart in the source; their conditions may differ. Read-outs that look alike come from different tables or passages of the source.

Tested on: protease
Type: biochemical, Aspergillus sp. MTCC 5102

O=C(O)CN(CCN(CC(=O)O)CC(=O)O)CC(=O)O [EDTA, ethylenediamine tetraacetic acid]
% inhibition: 6%
Residual specific activity (%): 94%
inhibition of the protease activity (in words): not inhibited; also recorded: no inhibition of activity

[Cl][Hg][Cl] [HgCl2, mercuric chloride]
inhibition of the protease activity (in words): not inhibited
% inhibition (200 µM): 14%
Residual specific activity (%) (200 µM): 86%

O=S(=O)(F)Cc1ccccc1 [PMSF, phenylmethylsulfonyl fluoride]
% inhibition: 100%
Residual specific activity (%): 0%
inhibition of the protease activity (in words): totally inhibited; also recorded: inhibition of the activity
